Patent EP2431033A1, “Dronedarone for preventing cardiovascular hospitalization or mortality in patients with lone atrial fibrillation” (SANOFI, priority 2010, dated 2012)

How the values were obtained:
patients with lone AF = test: Post-hoc analysis of EURIDIS, ADONIS and ATHENA trials, patients with lone AF; assay type: in vivo; conditions: for Number of patients with endpoint (lone AF): first cardiovascular hospitalization or death from any cause
Text: (§1) The present invention is illustrated by data from a post-hoc analysis of patients with lone atrial fibrillation enrolled in the clinical trials called EURIDIS, ADONIS and ATHENA trials with the following endpoints: • cardiovascular hospitalization or death from any cause • cardiovascular hospitalization • all cause mortality • cardiovascular mortality
(§2) Individual data from patients with lone AF enrolled in the EURIDIS, ADONIS and ATHENA trials were entered in a central database. (SAS version 8.2). The institutional review board at each site approved the study, and all patients gave written informed consent for taking part in the studies. In short, common enrolment criterion for these studies was the presence of paroxysmal or persistent AF. Patients with permanent AF or with unstable hemodynamic conditions were excluded from participation.
(§3) Lone AF was defined as AF occurring in patients without structural heart disease or arterial hypertension hypertension (not treated with blood pressure lowering medications), and without extracardiac diseases associated with AF (i.e. thyroid disorders).
(§4) In all 3 studies, patients were randomly assigned to double-blind treatment with dronedarone 400 mg BID or matching placebo. Hospitalisation was defined as at least one overnight stay. The main outcome measure of this post-hoc analysis was the time to the composite endpoint of first hospitalization for cardiovascular reasons or death from any cause, and their individual components.
(§5) Baseline parameters of patients with and without lone AF were compared with logistic regression analysis for qualitative and an ANOVA test for quantitative variables. All outcomes were estimated with the use of the Kaplan-Meier method and compared by means of the log-rank test. […] All P values are two-tailed, and statistical significance was assumed at a p-value of 0.05 or smaller.
(§6) The results obtained in this trial were analysed by the Kaplan Meier method for the figures, and the relative risk (RR) was estimated using Cox's proportional-effect regression model.
(§7) The relative risk (RR) is the ratio of the rates of occurrence of a hospitalization or of a death among the patients on dronedarone, relative to the patients on placebo.

patients without lone AF = test: Post-hoc analysis of EURIDIS, ADONIS and ATHENA trials, patients without lone AF; assay type: in vivo
Text: as §1, §2, §3, §4, §5, §6, §7

[1] = first cardiovascular hospitalization, patients with lone AF at baseline, 400mg BID
[2] = patients with lone AF, compared to placebo, x = 1-relative risk
[3] = first cardiovascular hospitalization, patients without lone AF at baseline, 400mg BID

Question: With `CCCCc1oc2ccc(NS(C)(=O)=O)cc2c1C(=O)c1ccc(OCCCN(CCCC)CCCC)cc1` [Dronedarone, 2-n-Butyl-3-[4-(3-di-n-butylaminopropoxy)benzoyl]-5-methylsulphonamidobenzofuran] as the compound, how does the “Number of patients with endpoint (lone AF)” value (shortened to “Number of patients”) (patients with lone AF; ADONIS, 400mg BID, N=64) read?
Answer: 1 (N=64)

Question: And the “Number of patients” value (patients with lone AF; ATHENA, 400mg BID, N=95)?
Answer: 26 (N=95)

Question: What about the “Number of patients” value (patients with lone AF; EURIDIS, 400mg BID, N=81) of the same compound?
Answer: 7 (N=81)

Question: And the “Number of patients” value (patients with lone AF; Lone AF population (3 studies pooled), 400mg BID, N=240)?
Answer: 34 (N=240)

Question: And the “Cumulative incidence of events at 1 year” value (patients with lone AF; [1])?
Answer: 0.113

Question: What about the “Cumulative incidence of events at 2 years” value (patients with lone AF; [1]) of the same compound?
Answer: 0.195

Question: And the “Cumulative incidence of events at 6 months” value (patients with lone AF; [1])?
Answer: 0.057

Question: What about the Relative risk (patients with lone AF; first cardiovascular hospitalization, patients with lone AF at baseline, vs placebo, cause-specific Cox regression model adjusted on studies) of the same compound?
Answer: 0.543

Question: What about the “risks for adverse events between placebo and dronedarone” value (patients with lone AF; independent from the AF type) of the same compound?
Answer: No difference

Question: And the “cardiovascular hospitalisations for AF or other supraventricular arrhythmias” value (patients with lone AF; lone AF, dronedarone group, out of all cardiovascular hospitalisations)?
Answer: 16 of 30

Question: What about the “All-cause mortality (HR)” value (patients with lone AF; lone AF, dronedarone vs placebo, 95%CI=0.31-3.43, p=0.885) of the same compound?
Answer: 1.02

Question: What about the “cardiovascular hospitalizations alone, HR” value (patients with lone AF; patients with lone AF, compared to placebo, 95%CI=0.34-0.87, p=0.004) of the same compound?
Answer: 0.54

Question: What about the “cardiovascular hospitalizations or death, hazard ratio (HR)” value (patients with lone AF; patients with lone AF, compared to placebo, 95%CI=0.36-0.88, p=0.004) of the same compound?
Answer: 0.56

Question: And the “reduction in cardiovascular hospitalizations alone” value (patients with lone AF; [2])?
Answer: 46%

Question: What about the “reduction of cardiovascular hospitalizations or death” value (patients with lone AF; [2]) of the same compound?
Answer: 44%

Question: What about the drug discontinuation rate (patients with lone AF; patients with lone AF, dronedarone arm vs placebo arm) of the same compound?
Answer: similar

Question: And the “Cumulative incidence of events at 1 year” value (patients without lone AF; [3])?
Answer: 0.208

Question: What about the “Cumulative incidence of events at 2 years” value (patients without lone AF; [3]) of the same compound?
Answer: 0.321

Question: And the “Cumulative incidence of events at 6 months” value (patients without lone AF; [3])?
Answer: 0.135

Question: And the Relative risk (patients without lone AF; first cardiovascular hospitalization, patients without lone AF at baseline, vs placebo, cause-specific Cox regression model adjusted on studies)?
Answer: 0.758

Question: What about the “reduction of the risk of CV hospitalizations or death” value (patients without lone AF; patients with other forms of AF) of the same compound?
Answer: 23%

Question: What about the drug discontinuation (patients without lone AF; patients with other forms of AF, dronedarone arm vs placebo arm) of the same compound?
Answer: more often
